A short description of this data set: Retention rate of the agriculturally active ingredient after xenon light irradiation (neat film on petri dish). Format: physicochemical. The following applies: xenon light (290 nm cutoff), intensity 0.68 W/m^2 at 340 nm, 8 hours, 35° C.; 5 mg air-dried on glass petri dish; HPLC. How it is done: A method for the calculation of a retention rate of the agriculturally active ingredient defined above is more specifically as follows. First, 250 mg of the agriculturally active ingredient is dissolved in 50 ml of a solvent such as acetone, which can sufficiently dissolve the agriculturally active ingredient and also has high volatility, and 1 mL of the solution is added to a glass petri dish having a diameter of 6 cm using a one-mark pipette, spread entirely over the petri dish, and then air-dried at room temperature. The petri dish is covered with a lid made of quartz glass and then set in a weathering tester (manufactured by Q-Lab Corporation under the trade name of Q-SUN Xenon Accelerated Weathering Tester, Model Xe-3) equipped with a borosilicate filter (manufactured by Q-Lab Corporation under the trade name of Daylight-BB Optical Filter) attached thereto. After irradiation with xenon light under the conditions of an intensity at 340 nm of 0.68 W/m^2 and a temperature of 35° C. (35° C. as measured by an insulated black panel thermometer) for 8 hours, the amount of the agriculturally active ingredient remaining on the petri dish is determined by a known determination method such as high-performance liquid chromatography. It is possible to determine a retention rate by calculating as the weight percentage relative to 5 mg of the agriculturally active ingredient used above. […]

Structures are written as SMILES.

`C=CCSC(=O)n1c(N)c(-c2ccccc2C)c(=O)n1C(C)C` [fenpyrazamine]: the “retention rate after irradiation with xenon light” value is recorded as 28.1%.
